What all share (type): cell-based
Common to all, as to conditions: cation-adjusted Mueller Hinton broth, serial 2-fold dilutions, repeated 3 times

Assay [1] relates to Pseudomonas aeruginosa PAO1 Wt.
Assay [2] relates to Pseudomonas aeruginosa PAO1 vacJ− mutant.
The test system of assay [3] is Pseudomonas aeruginosa PAO1 vacJ−:vacJ complemented strain.

≈ marks a conversion by molar mass, not a printed value. Counter-ions that a name gives are not always drawn. Positions of bridges follow the written chain, without caps; N, C: chain ends. Non-standard residues stand in square brackets, D forms with d. Residues, ends and D or L forms follow the SMILES beside them. *: point of attachment. X1 = CC[C@H](C)CCCCC(=O)*; Dab = NCC[C@H](N)C(=O)O

A word on the MIC: it is the least concentration at which growth counts as inhibited. With `CC[C@H](C)CCCCC(=O)N[C@@H](CCN)C(=O)N[C@H](C(=O)N[C@@H](CCN)C(=O)N[C@H]1CCNC(=O)[C@H]([C@@H](C)O)NC(=O)[C@H](CCN)NC(=O)[C@H](CCN)NC(=O)[C@H](CC(C)C)NC(=O)[C@@H](CC(C)C)NC(=O)[C@H](CCN)NC1=O)[C@@H](C)O` [Colistin, colistin sulfate] (X1-[Dab]T[Dab][Dab][Dab][dL]L[Dab][Dab]T; lactam 4-C (inferred); N-terminus assumed), the minimal inhibitory concentration (MIC) in assay [1] was 1 mg/L; in assay [2], 0.5 mg/L; in assay [3] it was 1 mg/L.
Regarding `CC[C@H](C)CCCCC(=O)N[C@@H](CCN)C(=O)N[C@H](C(=O)N[C@@H](CCN)C(=O)N[C@H]1CCNC(=O)[C@H]([C@@H](C)O)NC(=O)[C@H](CCN)NC(=O)[C@H](CCN)NC(=O)[C@H](CC(C)C)NC(=O)[C@@H](Cc2ccccc2)NC(=O)[C@H](CCN)NC1=O)[C@@H](C)O` [Polymyxin B] (X1-[Dab]T[Dab][Dab][Dab][dF]L[Dab][Dab]T; lactam 4-C (inferred); N-terminus assumed), the figures for the minimum inhibitory concentration (MIC) in assay [1], in assay [2] and in assay [3] were 0.5 mg/L (≈ 0.415 µM), 0.25 mg/L (≈ 0.208 µM) and 0.5 mg/L (≈ 0.415 µM), respectively.
